Test results as given in publication PMC9268243, “Metabolic Behaviors of Aconitum Alkaloids in Different Concentrations of Aconiti Lateralis Radix Praeparata and Effects of Aconitine in Healthy Human and Long QT Syndrome Cardiomyocytes” (Molecules, 2022).
Read-outs that look alike come from different tables or passages of the source.

Legend:
[1] = Pharmacokinetic study of six aconitum alkaloids in rat plasma after oral Fu Zi extracts (UPLC-MS/MS); type: in vivo, Sprague Dawley rats; conditions: both sexes, Sprague Dawley, in vivo, SD rat plasma, mean ± SD, n = 8; for AUC(0-t): read-out: AUC(0–48h); for CL/F: read-out: CLz/F (converted); for Vd/F: read-out: Vz/F; for half-life: read-out: t1/2z (converted)
Method: Fu Zi (200 g) was taken and broken by a pulverizer to the size of 0.5–1.0 cm. The broken Fu Zi was soaked in 1.6 L distilled water and boiled for 0.5 h. The filtrate was collected and the previous step was repeated for the filtered residue. The mixed filtrates were precipitated with 60% ethanol, and then centrifuged (2000× g, 10 min). The supernatant was decompressed and concentrated to a final density of 2.0 g/mL by the amount of the crude drugs. The final concentration of ethanol in Fu Zi extracts before administration was below 0.5%. The extract was subsequently kept at −20 °C for oral administration to rats.
All samples were analyzed on UPLC® I-Class and Xevo® TQS mass spectrometry combined system. Separations by a Waters ACQUITY UPLC® HSS T3(2.1 mm × 100 mm, 1.8 μm) column were conducted with a mobile phase of water (A) and acetonitrile (B), both containing 0.1% formic acid, at the flow rate of 0.3 mL·min^−1.The run time was 5.0 min and the gradient elution program was adopted as follows: 0–0.3 min, 10% B; 0.3–1 min, 10–50% B; 1–2.5 min, 50–90% B; 2.5–3 min, 90% B; 3–5 min, 10% B. The temperature of the column and samples were set at 45 °C and 10 °C, respectively. The volume of injection was 2 μL.
The detection was quantified by a triple quadrupole mass spectrometer that was set as multiple reactive monitoring (MRM) in the electrospray positive ionization mode (ESI+). The correlative parameters were as follows: capillary voltage: 3 kV; desolvation gas flow: 800 L·h^−1; cone gas flow: 150 L·h^−1; source temperature: 150 °C; desolvation temperature: 500 °C.
The method of […] was utilized. An amount of 100 μL of plasma samples from rats after oral administration of Fu Zi extracts was precipitated with 300 μL of 50% acetonitrile plus 50% methanol, vortexed for 1.0 min and centrifuged at a speed of 12,000× g at 4 °C for 10 min. The supernatant was transferred to another 1.5 mL centrifuge tube, dried with a stream of nitrogen at 40 °C, redissolved in 50 μL methanol and centrifuged at 12,000× g for 10 min. Then, the supernatant was pipetted out into the autosampler vials and analyzed by UPLC-MS/MS system.
24 Sprague Dawley rats (half male and female, weight 180–220 g) were purchased from Beijing Weitong Lihua Biotechnology Co.Ltd. (Beijing, China). The license number of experimental animal production was SCXK (Jing) 2016–0006. The animals were maintained under a standard laboratory condition (humidity: 40–70%, room temperature: 20–26 °C, […], 12 h dark-light cycle) and fed separately. All animal experiments were conducted according to the Guide for the Care and Use of Laboratory Animals (National Research Council of the USA, 1996) and approved by the Institutional Animal Care and Use Committee (IACUC-DWZX-2020-776). After 5 days of acclimation, the rats were fasted for 12 h but provided with water freely before the experiments. The rats were randomly divided into 3 groups: high (2.0 g/kg), middle (1.0 g/kg), and low (0.5 g/kg) dose groups. The Fu Zi extracts was administered to each rat intragastrically. An equivalent of 0.20 mL blood samples were collected from the fossa orbitalis vein into 1.5 mL heparinized centrifuge tubes at the designated time points after dosing: 0.08, 0.25, 0.5, 1, 2, 4, 8, 12, 24, and 48 h. The plasma samples were pipetted out into another 1.5 mL centrifuge tubes after being centrifuged at 5000× g for 10 min and then stored at −20 °C until further analysis.
The data were acquired by […] from Waters (UNIFI). Microsoft Office Excel and the SPSS software (Version 13.0) was used for data analysis. The data below the LLOQ were regarded as zero in summary statistics. The pharmacokinetic parameters were calculated by DAS pharmacokinetic program (Version 2.0) and all analyzed by non-compartmental method. […] All data were presented as mean ± SD. […]

CYP3A4 = conditions: in vivo; cited from earlier work
myocardial cells = system: myocardial cells; parameters: method as in our previous work; conditions: low doses 5–20 nmol/L, ref our previous work; cited from earlier work
[2] = target: T1, L-type calcium current (ICa,L) in normal hiPSC-CMs (Homo sapiens, UniProt Q13936); test: Patch-clamp L-type calcium current, normal hiPSC-CMs; type: cell-based
T1 construct: endogenous in cells; host or cells: normal hiPSC-derived cardiomyocytes (hiPSC-CMs)
Text: Standard patch-clamp techniques were used to record action potentials, and L-type calcium currents. Composition of intracellular fluid and extracellular fluid were shown in Table 7 and Table 8, respectively. The signal was amplified using an HEKA EPC-10 patch-clamp amplifier (HEKA, Electronics, Ludwigshafen, Germany) and low-pass filtered at 5 kHz. Patch pipettes were fabricated from glass capillaries using a Sutter P-97 microelectrode puller (Novato, CA, USA) and the tips were heat polished with a microforge (NARISHIGE MF-900) to gain a resistance of 2–5 MΩ. Data acquisition was achieved using HEKA Patchmaster (V2x73.2). Data analysis and fit were performed using Clamfit and Graphpad Prism 6.0. The experiment was conducted at 37 °C. One cell can test one or more drugs, or multiple concentrations of the same drug but needs to be rinsed with extracellular fluid between each test. Nifedipine (Sigma) was used as a positive control to ensure cell quality. External solution containing 0.1% DMSO was applied as vehicle to establish the baseline. Recording was done at a temperature-controlled room of 35–37 degrees Celsius.
Isoproterenol, nifedipine, and AC were purchased from Sigma-Aldrich, which were resolved in DMSO (Sigma-Aldrich, D2650). Drug compounds final concentration were AC (0.05, 0.5,5 μM), nifedipine (1 μM), isoproterenol (3 μM), respectively. Dilutions were prepared within 60 min of treatment. All the compound solutions were subjected to regular 10 min ultrasound and oscillations to ensure that compounds were completely dissolved. Equal amounts of DMSO (0.1%) were used as the vehicle controls.

T1 sequence (Q13936 whole entry): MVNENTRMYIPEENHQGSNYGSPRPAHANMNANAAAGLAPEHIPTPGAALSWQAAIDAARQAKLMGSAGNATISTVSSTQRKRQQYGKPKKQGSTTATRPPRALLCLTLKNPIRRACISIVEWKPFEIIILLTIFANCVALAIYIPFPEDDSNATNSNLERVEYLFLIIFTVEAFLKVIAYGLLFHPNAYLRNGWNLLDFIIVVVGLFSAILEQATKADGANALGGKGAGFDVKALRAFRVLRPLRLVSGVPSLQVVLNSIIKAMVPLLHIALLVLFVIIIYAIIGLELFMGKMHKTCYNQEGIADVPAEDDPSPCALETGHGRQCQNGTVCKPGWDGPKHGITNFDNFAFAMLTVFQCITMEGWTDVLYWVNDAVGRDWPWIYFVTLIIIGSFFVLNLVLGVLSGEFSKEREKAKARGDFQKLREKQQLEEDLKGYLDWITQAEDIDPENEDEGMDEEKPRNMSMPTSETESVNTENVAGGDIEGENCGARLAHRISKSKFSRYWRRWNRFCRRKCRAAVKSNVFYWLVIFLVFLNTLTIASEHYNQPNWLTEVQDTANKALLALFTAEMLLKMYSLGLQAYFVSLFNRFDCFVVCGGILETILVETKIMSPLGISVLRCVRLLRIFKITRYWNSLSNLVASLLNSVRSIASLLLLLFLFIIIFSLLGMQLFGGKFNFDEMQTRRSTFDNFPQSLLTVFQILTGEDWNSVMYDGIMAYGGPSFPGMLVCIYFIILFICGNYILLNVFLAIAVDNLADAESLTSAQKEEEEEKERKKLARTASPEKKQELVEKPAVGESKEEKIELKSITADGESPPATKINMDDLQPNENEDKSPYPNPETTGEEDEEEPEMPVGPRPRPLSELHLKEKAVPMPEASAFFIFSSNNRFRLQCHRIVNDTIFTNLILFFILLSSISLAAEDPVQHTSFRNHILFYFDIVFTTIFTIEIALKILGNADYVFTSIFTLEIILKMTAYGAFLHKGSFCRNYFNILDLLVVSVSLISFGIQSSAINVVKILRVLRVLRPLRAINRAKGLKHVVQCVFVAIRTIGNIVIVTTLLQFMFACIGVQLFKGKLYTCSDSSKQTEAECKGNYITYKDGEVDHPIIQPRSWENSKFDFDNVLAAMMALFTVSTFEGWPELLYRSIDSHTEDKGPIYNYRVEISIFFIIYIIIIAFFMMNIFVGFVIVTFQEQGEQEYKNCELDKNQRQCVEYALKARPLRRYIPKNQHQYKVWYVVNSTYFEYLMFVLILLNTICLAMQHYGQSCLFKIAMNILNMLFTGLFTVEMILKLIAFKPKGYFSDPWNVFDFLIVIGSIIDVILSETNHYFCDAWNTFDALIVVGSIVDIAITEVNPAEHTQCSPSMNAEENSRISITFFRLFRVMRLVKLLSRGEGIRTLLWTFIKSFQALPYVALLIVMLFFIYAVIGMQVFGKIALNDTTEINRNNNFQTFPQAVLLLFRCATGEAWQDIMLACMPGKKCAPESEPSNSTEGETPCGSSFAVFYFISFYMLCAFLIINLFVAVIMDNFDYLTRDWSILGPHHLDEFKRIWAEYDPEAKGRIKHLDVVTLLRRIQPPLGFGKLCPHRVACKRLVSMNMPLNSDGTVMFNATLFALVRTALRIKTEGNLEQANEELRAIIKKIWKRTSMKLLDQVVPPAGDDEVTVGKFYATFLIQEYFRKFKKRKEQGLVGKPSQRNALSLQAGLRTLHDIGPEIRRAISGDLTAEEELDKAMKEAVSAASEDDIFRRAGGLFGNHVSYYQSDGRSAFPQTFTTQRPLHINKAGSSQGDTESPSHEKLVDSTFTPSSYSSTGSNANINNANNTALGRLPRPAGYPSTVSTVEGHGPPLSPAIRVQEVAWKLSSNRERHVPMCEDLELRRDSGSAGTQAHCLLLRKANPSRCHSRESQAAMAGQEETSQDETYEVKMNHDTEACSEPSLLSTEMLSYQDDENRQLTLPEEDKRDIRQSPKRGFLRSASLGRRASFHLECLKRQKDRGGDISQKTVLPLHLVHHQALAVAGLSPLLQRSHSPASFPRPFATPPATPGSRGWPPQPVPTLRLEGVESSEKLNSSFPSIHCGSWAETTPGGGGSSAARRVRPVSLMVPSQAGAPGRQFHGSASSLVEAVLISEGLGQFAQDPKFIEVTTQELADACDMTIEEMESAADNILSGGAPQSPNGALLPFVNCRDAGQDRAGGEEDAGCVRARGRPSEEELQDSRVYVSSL
T1 sequence (Q08289 whole entry partner): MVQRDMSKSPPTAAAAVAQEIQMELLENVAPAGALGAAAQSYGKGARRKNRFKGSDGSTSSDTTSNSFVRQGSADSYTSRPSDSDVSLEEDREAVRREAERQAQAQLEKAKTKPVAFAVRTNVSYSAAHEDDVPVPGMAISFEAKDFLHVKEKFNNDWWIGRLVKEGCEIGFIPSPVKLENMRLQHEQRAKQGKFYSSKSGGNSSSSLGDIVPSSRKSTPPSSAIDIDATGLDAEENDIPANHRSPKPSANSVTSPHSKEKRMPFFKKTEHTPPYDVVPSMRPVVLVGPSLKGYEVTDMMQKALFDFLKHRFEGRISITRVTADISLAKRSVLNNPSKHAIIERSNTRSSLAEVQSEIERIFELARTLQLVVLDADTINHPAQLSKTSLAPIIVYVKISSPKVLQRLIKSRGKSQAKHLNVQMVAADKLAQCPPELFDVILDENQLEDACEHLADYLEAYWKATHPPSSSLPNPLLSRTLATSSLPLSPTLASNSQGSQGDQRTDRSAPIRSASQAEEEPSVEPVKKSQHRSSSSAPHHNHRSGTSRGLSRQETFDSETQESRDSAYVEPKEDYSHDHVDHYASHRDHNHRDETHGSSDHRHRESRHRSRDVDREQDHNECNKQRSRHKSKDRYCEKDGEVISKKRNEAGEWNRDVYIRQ
T1 sequence (P54289 25-956 partner limits assumed): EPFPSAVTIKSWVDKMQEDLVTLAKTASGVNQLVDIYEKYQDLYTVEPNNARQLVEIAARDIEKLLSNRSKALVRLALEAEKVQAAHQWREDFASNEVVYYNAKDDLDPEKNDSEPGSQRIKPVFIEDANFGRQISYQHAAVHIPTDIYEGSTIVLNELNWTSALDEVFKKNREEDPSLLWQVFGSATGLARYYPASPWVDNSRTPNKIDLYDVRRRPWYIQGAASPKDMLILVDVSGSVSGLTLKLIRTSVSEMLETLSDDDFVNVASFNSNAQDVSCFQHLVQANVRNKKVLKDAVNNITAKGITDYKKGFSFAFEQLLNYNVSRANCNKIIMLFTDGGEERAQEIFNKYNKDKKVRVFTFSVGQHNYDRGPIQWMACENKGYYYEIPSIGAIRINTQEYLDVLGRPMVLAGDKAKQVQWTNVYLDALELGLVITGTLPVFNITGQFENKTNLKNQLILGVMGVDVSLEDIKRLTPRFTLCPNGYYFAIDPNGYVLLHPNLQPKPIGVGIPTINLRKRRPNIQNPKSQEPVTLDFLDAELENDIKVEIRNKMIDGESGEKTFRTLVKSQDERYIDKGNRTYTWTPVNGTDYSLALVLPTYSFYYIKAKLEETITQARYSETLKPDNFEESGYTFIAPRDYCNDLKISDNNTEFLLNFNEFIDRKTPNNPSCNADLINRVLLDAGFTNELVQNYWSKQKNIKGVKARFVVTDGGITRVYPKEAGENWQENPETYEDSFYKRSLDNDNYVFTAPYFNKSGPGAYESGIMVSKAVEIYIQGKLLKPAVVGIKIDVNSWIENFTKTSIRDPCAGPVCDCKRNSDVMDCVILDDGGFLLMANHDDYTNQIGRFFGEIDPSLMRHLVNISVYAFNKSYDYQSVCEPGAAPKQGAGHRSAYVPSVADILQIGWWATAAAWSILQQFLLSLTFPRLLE
T1 sequence (P54289 957-1103 partner limits assumed): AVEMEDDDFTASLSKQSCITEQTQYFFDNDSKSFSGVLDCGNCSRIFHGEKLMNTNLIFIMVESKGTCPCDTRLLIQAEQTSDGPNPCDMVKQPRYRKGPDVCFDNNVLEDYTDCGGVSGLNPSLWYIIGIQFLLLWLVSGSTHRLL

**Q.** For `CCN1C[C@]2(COC)[C@H](O)C[C@H](OC)[C@@]34[C@@H]5C[C@@]6(O)[C@H](OC(=O)c7ccccc7)[C@@H]5[C@@](OC(C)=O)([C@@H]([C@H](OC)[C@H]23)[C@@H]14)[C@@H](O)[C@@H]6OC` [AC, aconitine], which Cmax ([1]; oral Fu Zi extracts 0.5 g/kg) is on record?
**A.** The Cmax was 1.28 ± 0.34 ng/mL.

**Q.** And the Tmax ([1]; oral Fu Zi extracts 0.5 g/kg)?
**A.** Its Tmax is 4.38 ± 3.11 h.

**Q.** And the AUC(0-t) ([1]; oral Fu Zi extracts 0.5 g/kg)?
**A.** Its AUC(0-t) is 13.5 ± 3.28 ng·h/mL.

**Q.** And the CL/F ([1]; oral Fu Zi extracts 0.5 g/kg)?
**A.** The CL/F was 77 mL/min/kg.

**Q.** What about the Vd/F ([1]; oral Fu Zi extracts 0.5 g/kg) of the same molecule?
**A.** The Vd/F was 14 ± 4.33 L/kg.

**Q.** And the half-life ([1]; oral Fu Zi extracts 0.5 g/kg)?
**A.** Its half-life is 1.9 ± 0.31 h.

**Q.** What about the Cmax ([1]; oral Fu Zi extracts 1.0 g/kg) of the same molecule?
**A.** The Cmax was 1.69 ± 0.33 ng/mL.

**Q.** What about the Tmax ([1]; oral Fu Zi extracts 1.0 g/kg) of the same molecule?
**A.** Its Tmax is 3.13 ± 1.25 h.

**Q.** And the AUC(0-t) ([1]; oral Fu Zi extracts 1.0 g/kg)?
**A.** The AUC(0-t) was 17.1 ± 4.68 ng·h/mL.

**Q.** What about the CL/F ([1]; oral Fu Zi extracts 1.0 g/kg) of the same molecule?
**A.** The CL/F was 106 mL/min/kg.

**Q.** And the Vd/F ([1]; oral Fu Zi extracts 1.0 g/kg)?
**A.** The Vd/F was 70 ± 33.4 L/kg.

**Q.** And the half-life ([1]; oral Fu Zi extracts 1.0 g/kg)?
**A.** The half-life was 7.53 ± 2.74 h.

**Q.** And the Cmax ([1]; oral Fu Zi extracts 2.0 g/kg)?
**A.** Its Cmax is 2.27 ± 0.7 ng/mL.

**Q.** And the Tmax ([1]; oral Fu Zi extracts 2.0 g/kg)?
**A.** The Tmax was 1.03 ± 0.84 h.

**Q.** What about the AUC(0-t) ([1]; oral Fu Zi extracts 2.0 g/kg) of the same molecule?
**A.** Its AUC(0-t) is 23.8 ± 7.77 ng·h/mL.

**Q.** And the CL/F ([1]; oral Fu Zi extracts 2.0 g/kg)?
**A.** The CL/F was 148 mL/min/kg.

**Q.** What about the Vd/F ([1]; oral Fu Zi extracts 2.0 g/kg) of the same molecule?
**A.** Its Vd/F is 167 ± 80.1 L/kg.

**Q.** And the half-life ([1]; oral Fu Zi extracts 2.0 g/kg)?
**A.** The half-life was 11.5 ± 4.3 h.

**Q.** And the “main CYP 450 subtype for alkaloid metabolism” value (CYP3A4)?
**A.** Its value is “CYP3A4”.

**Q.** What about the mitochondrial energy metabolism (myocardial cells) of the same molecule?
**A.** Its mitochondrial energy metabolism is “could improve mitochondrial energy metabolism”.

**Q.** And the IC50 ([2]; normal (control) hiPSC-CMs, tested 0.05–5 μM, no concentration dependence, read-out: IC50, inhibition of L-type calcium current)?
**A.** Its IC50 is over 5 µM.

**Q.** What about the “peak value of L-type calcium current” value ([2]; normal group, 0.05–5 μM) of the same molecule?
**A.** The value was “significantly decreased”.

**Q.** What about the IC50 ([2]; normal hiPSC-CMs, estimated beyond tested range 0.05–5 μM, read-out: IC50 (eIC50) on ICa,L) of the same molecule?
**A.** Its IC50 is 27.5 µM.
